Assays:
[1] = system: ASNS expression in Burkitt lymphoma lines; assay: qPCR gene expression after compound treatment; format: cell-based
Protocol: Cell Culture: Cell culture medium: RPMI 1640 medium (#2198761, Thermo Fisher) supplemented with 10% fetal calf serum (#S00AZ, BioWest) and 1% pen/strep (#15140-122, Thermo Fisher). At day-1, 900 μl cell suspension was seeded in 24-well plates (#662165, Greiner Bio-One) at a density of 128,000 cells/well. At day 0, 100 μl compound was added in three different concentrations to reach a final concentration of 0.316×IC50, 1×IC50, and 3.16×IC50 (unless indicated otherwise). To the control samples, 100 μl 20 mM HEPES+3.16% DMSO was added instead of compound. When the compound is prepared in HEPES instead of DMSO, 20 mM HEPES without DMSO was added to the cells. The cells were collected at 6 hours, 24 hours and 48 hours after addition of the compound and were transferred to a 96-well deep well plate and centrifuged for 5 min at 340×g. Prior to the collection of the cells microscopic pictures were taken from the untreated (control) cells. After removing the medium, 200 μl RNA protect (#76526, Qiagen) was added to the cell pellet and the cells were stored at −80° C.
RNA isolation: Total RNA was isolated with the SV96 Total RNA Isolation System kit (#Z3505, Promega) according to manufacturer's instructions. The procedure includes a ‘RNAse free DNAse’ gDNA removal step.
Determining the RNA concentration: RNA concentrations were determined with the RiboGreen (#R11490, Thermo Fisher) kit according to manufacturer's instructions.
cDNA synthesis: RNA was reverse transcribed into cDNA using the Quantitect Reverse Transcript Kit (#205313, Qiagen) according to manufacturer's instructions. This procedure includes a second ‘RNAse free DNAse’ gDNA removal step, ensuring the complete removal of gDNA from the samples. For each time point (6 h, 24 h, or 48 h) identical volumes of RNA were used for cDNA synthesis. After synthesis, cDNA is diluted with nuclease free water to obtain approximately similar cDNA concentrations per sample.
qPCR: 1) 50° C. for 10 min (Uracil-DNA glycosylase ([…]) step to remove all potential traces of amplicon DNA from previous qPCRs); 2) 5 min UDP inactivation/denaturation at 95° C.; 3) 40 cycles of 10s denaturation at 95° C., 20s annealing at 60° C., and 30s extension at 72° C.; and 4) Dissociation curve to determine the melting temperature of the qPCR amplicon.
qPCR Data Analysis: Cq and Tm raw data values are determined by the BioRad CFX manager software from the PCR machine. For every PCR sample that produced a Cq value the corresponding melting temperature of the PCR amplicon (Tm) was checked to identify samples that generated dual or a specific PCR products. A PCR product is regarded a specific when its Tm is >0.5° C. different from that the Tm of the specific PCR amplicon, in this case the Cq value is removed and not used for further data analysis. Cq values were than normalized by subtracting the (mean) Cq value of the two housekeeping genes (ACTB & RPS18) from the Cq value of the gene of interest. The normalized value is called DCq. The Cq difference between sample and the control (DDCq) was calculated by subtracting DCq control from DCq sample. The fold difference in expression between the control (no compound) and the compound treated sample is than calculated according the 2^-DDCq method.

[2] = system: DLBCL lines; assay: Single-agent sensitivity of lymphoma lines (dose-response, 72 hrs incubation); format: cell-based; details: ABC, GCB, and THL lines; read-out: sensitivity to carfilzomib (range)
Description: Sensitivity to asparaginase and 11 chemotherapeutic agents (carfilzomib, doxorubicin, rapamycin, ibrutinib, cyclophosphamide, prednisolone, metformin, venetoclax, navitoclax, rituximab and vincristine) determined in 8 lymphoma lines, including diffuse large B-cell and Burkitt lymphomas. The investigated lymphoma lines are sensitive to asparagine depletion within the clinically achievable range. Expression of decisive genes (BCL2, BCL6, BCL2L1, MYC, ASNS) determined in 8 lymphoma lines (FIGS. 11 and 12). Increased expression of BCL2 served as marker for resistance of ibrutinib and rapamycin in triple hit lymphoma (FIGS. 11 and 12). Increased expression of ASNS served as marker for resistance of carfilzomib and asparaginase in Burkitt lymphoma (FIGS. 11 and 12). Identified combination agents that enhanced asparaginase activity in vitro include synergy of JZP458 and rituximab, venetoclax and ibrutinib in lymphoma lines (DLBCL) (see FIG. 13, FIG. 15, and FIG. 17). […] In vivo tolerability study of long acting Erwinia Asparaginase.
ABC-DLBCL lines and one of GCB-DLBCL lines are very sensitive to JZP458 in the range of 0.011-7.3 IU/mL. Dose-response curve overlays-72 hrs incubation.

Compound: CC(C)C[C@H](NC(=O)[C@H](CCc1ccccc1)NC(=O)CN1CCOCC1)C(=O)N[C@@H](Cc1ccccc1)C(=O)N[C@@H](CC(C)C)C(=O)[C@@]1(C)CO1 [carfilzomib, reference compound]
- change of ASNS expression ([1]; Burkitt lymphoma lines): significantly increase
- increase of ASNS expression ([1]; Burkitt lymphoma lines (BJAB, RAJI, RAMOS), after treatment): 1.25 fold
- IC50 [2]: 1.3 to 7.2 nM

— patent US20260007728A1, “COMBINATION THERAPIES INVOLVING L-ASPARAGINASE” (Jazz Pharmaceuticals Ireland Ltd., priority 2022, published 2026)
